According to PMC12841663, “Antiprotozoal Potential of Cultivated Geranium macrorrhizum Against Giardia duodenalis, Trichomonas gallinae and Leishmania infantum” (International Journal of Molecular Sciences, 2026):
Converted amounts (≈) assume the structure as drawn. “Also recorded” adds a separate entry of the source.

How the values were obtained:
T. gallinae trophozoites [1] = assay: Morphological evaluation by light microscopy (Diff-Quik), T. gallinae; type: cell-based, Trichomonas gallinae; conditions: germacrone 100 µg/mL, metronidazole 10 µg/mL; 0.5 and 48 h; control DMSO 1%
Excerpt: At each time point, quadruplicates were assigned per condition: growth control, germacrone, and the corresponding positive control (metronidazole or amphotericin B). For microscopy, quadruplicate wells corresponding to the same condition/time point were pooled prior to centrifugation to obtain sufficient biomass and a representative pellet for smear preparation. Pooled samples per condition/time point were centrifuged, resuspended in FBS and spread onto microscope slides. Once dried, samples were fixed and stained with Diff-Quik (Medion Diagnostic AG, […], Switzerland) following the manufacturer's instructions. Additionally, three wells per condition (triplicates) were used for the MTT assay, with absorbance measured by spectrophotometry after 48 h. Morphological changes were analyzed using light microscopy. Experiments were performed as independent biological replicates on different plates, and one Diff-Quik stained smear was obtained per condition and time point per biological replicate. For morphometric analysis, a total of 30 trophozoites per condition and time point were measured across the independent biological replicates and were selected by consecutive sampling during a predefined serpentine (zig-zag) scan across the preparation. Up to two eligible trophozoites per field (intact, well-focused and non-overlapping) were measured in sequential fields until n = 30 was reached, avoiding subjective selection of “representative” cells. Overlapping, partially visible, out-of-focus, edge-of-field, or debris-obscured trophozoites were excluded a priori. Trophozoites were photographed using a researcher's mobile phone mounted to the microscope ocular. Calibration was performed at the same magnification using a stage micrometre and applied in ImageJ v. 1.54d. One Diff-Quik stained smear was obtained per condition/time point per biological replicate Cell length, cell width, cell surface, nuclear length, nuclear width, axoneme (only Giardia), and length of axostyle (only T. gallinae) were measured with ImageJ software, and the data were recorded in an Excel database for statistical analysis. The Shapiro-Wilk test was used to assess the normality of the morphological variables. When data followed a normal distribution, Student's t-test was applied; otherwise, non-parametric tests, such as the Mann-Whitney U test, was used. Values of p < 0.05 were considered significant. For the morphological analysis, the mean, standard deviation, median, and interquartile range were calculated using SPSS version 20 (IBM Corp., Armonk, NY, USA).

[2] = test system: G. duodenalis trophozoites; assay: Morphological evaluation by light microscopy (Diff-Quik), G. duodenalis; type: cell-based, Giardia duodenalis; conditions: germacrone 100 µg/mL, metronidazole 100 µg/mL; 0.5 and 48 h; control DMSO 1%
Protocol: Each well contained 435 μL of culture medium and 15 μL of the test or control compounds at the above-mentioned concentrations. The chamber included: two wells for growth control (0.5 h, 48 h), two for germacrone (0.5 h, 48 h), and two for metronidazole (0.5 h, 48 h). Incubation was performed at 37 °C. At each time point, the medium was removed, wells were dried, fixed, and stained with Diff-Quik. Morphological changes were analyzed using light microscopy. Experiments were performed as independent biological replicates on different plates, and one Diff-Quik stained smear was obtained per condition and time point per biological replicate. For morphometric analysis, a total of 30 trophozoites per condition and time point were measured across the independent biological replicates and were selected by consecutive sampling during a predefined serpentine (zig-zag) scan across the preparation. Up to two eligible trophozoites per field (intact, well-focused and non-overlapping) were measured in sequential fields until n = 30 was reached, avoiding subjective selection of “representative” cells. Overlapping, partially visible, out-of-focus, edge-of-field, or debris-obscured trophozoites were excluded a priori. Trophozoites were photographed using a researcher's mobile phone mounted to the microscope ocular. Calibration was performed at the same magnification using a stage micrometre and applied in ImageJ v. 1.54d. One Diff-Quik stained smear was obtained per condition/time point per biological replicate Cell length, cell width, cell surface, nuclear length, nuclear width, axoneme (only Giardia), and length of axostyle (only T. gallinae) were measured with ImageJ software, and the data were recorded in an Excel database for statistical analysis. The Shapiro-Wilk test was used to assess the normality of the morphological variables. When data followed a normal distribution, Student's t-test was applied; otherwise, non-parametric tests, such as the Mann-Whitney U test, was used. Values of p < 0.05 were considered significant. For the morphological analysis, the mean, standard deviation, median, and interquartile range were calculated using SPSS version 20 (IBM Corp., Armonk, NY, USA).

[3] = Cytotoxicity of pure compounds on Vero cells (MTT); type: cell-based; conditions: African green monkey
Protocol: African green monkey kidney cells (Vero cells) were maintained in Dulbecco’s modified Eagle’s minimal essential medium (DMEM) (Thermo Fisher Scientific, Waltham, MA, USA) supplemented with 10% FBS and 1% Pen-Strep at 37 °C under a humidified atmosphere of 5% CO2/95% air.
Cells seeded in 96-well flat-bottom microplates with 100 μL medium per well (initial densities 10^4 cells per well) were exposed for 48 h to serial dilutions (100, 75, 50, 25, 10 and 1 µg/mL) of the tested compounds in DMSO (<1% final concentration). Cell viability was analyzed by the MTT colorimetric assay method, and the purple-colored formazan precipitate was dissolved with 100 μL of DMSO [23].
Data was analyzed using STATGRAPHICS Centurion XIX (https://www.statgraphics.com) (Statgraphics Technologies, Inc., The Plains, VA, USA). The mammalian cells and trophozoites viability were tested with each compound in a dose–response experiment to calculate their relative potency (CC50 or IC50 value, respectively). IC50 (μg/mL) expresses the dose of EOs, extracts or pure compounds needed to produce 50% mortality of trophozoites, while CC50 (μg/mL) expresses the dose of compounds necessary to produce 50% mortality of Vero cells.

[4] = test system: G. duodenalis trophozoites; assay: Anti-Giardia activity assay (MTT viability); type: cell-based; conditions: pure compounds
Protocol: Anti-Giardia (AG) activity assays were conducted on G. duodenalis trophozoites from the ATCC® 30957 strain (assemblage A), using flat-bottom microwell plates in quadruplicate. […] Incubation was carried out for 24 h at 37 °C. EOs and pure compounds were solved in DMSO (Sigma, Madrid, Spain) (<1% final concentration). […] Trophozoites/promastigotes viability was assessed using the modified MTT colorimetric assay, as described previously in the literature, with results further validated by microscopic examination. The plate was analyzed in a spectrophotometer at a wavelength of 570 nm. The percentage of antiparasitic activity was calculated as growth inhibition, using the following formula: % AT = 100 - [(Ap - Ab) ÷ (Ac - Ab)] × 100, where Ap is the absorbance of the tested product, Ab the absorbance of the blank and Ac the absorbance of the control wells (culture without treatment). […] Metronidazole (Acros Organics, Madrid, Spain) served as a reference compound for anti-Giardia activity and Anti-Trichomonas activity and amphotericin B for anti-Leishmania activity. Data was analyzed using STATGRAPHICS Centurion XIX ([…].com) (Statgraphics Technologies, Inc., The Plains, VA, USA). The mammalian cells and trophozoites viability were tested with each compound in a dose-response experiment to calculate their relative potency (CC50 or IC50 value, respectively).

T. gallinae trophozoites [5] = test system: T. gallinae trophozoites; design: method as in PMID 36157195; conditions: cited from earlier work

## Cc1ncc([N+](=O)[O-])n1CCO [Met, metronidazole, reference compound]
T. gallinae trophozoites [1]
  axostyle length vs control: decreased at 0.5 h; also recorded: undetectable in most metronidazole-treated trophozoites by 48 h
  cell length vs control: initial increase at 0.5 h, followed by a reduction at 48 h
  cell surface area vs control: significant reduction only at 48 h
  nuclear length vs control: decreased with metronidazole
  nuclear width vs control: diminished at 0.5 h; also recorded: further decreased
[2]
  axoneme length vs control: decreased at 0.5 h; also recorded: continued to decrease
  cell length vs control: significant reductions at 30 min
  cell surface area vs control: reduction in cell surface area relative to the control within 0.5 h
  cell width vs control: decrease in cell width at 0.5 h
  nuclear length (left and right) vs control: No effects
  nuclear width vs control: reduction at 0.5 h, followed by an increase at 48 h
[3]
  CC50 at 48 h: > 100 µg/mL
[4]
  IC50: 4.4 µg/mL (≈ 25.7 µM)
T. gallinae trophozoites [5]
  T. gallinae IC50: 1.0 (0.8–1.1) [23] µg/mL
